Experimental data as given in patent US20060189673A1, “Phenylazole compound, production process therefor and antioxidant” (Nippon Soda Co., Ltd., priority 2003, published 2006).
Where two headings read alike, the source gives them in different places.

Experiments:
[1] = tested on: lipid peroxide in rat brain homogenate; experiment: Antioxidative action on lipids in vitro (lipid peroxide activity in rat brain homogenate, thiobarbituric acid method); assay type: biochemical; settings: 500 μM cysteine, 5 μM ferrous sulfate, 100 mM KCl, 30 minutes at 37° C., malondialdehyde, read-out: 50% inhibitory concentration of anti-lipid peroxide action in vitro (IC50)
Protocol: (§1) The antioxidative action on lipids in vitro of the compounds according to the present invention was evaluated in accordance with the method of Malvy et al. (Malvy C. et al.,) described in Biochemical and Biophysical Research Communications, 1980, vol. 95, pp. 734 to 737,) by measuring the lipid peroxide activity in a rat brain homogenate. Namely, the rat brain was removed followed by the addition of five volumes of an aqueous solution of phosphate buffered saline (pH 7.4) (hereinafter, abbreviated as PBS) to the brain while cooling with water, homogenizing with a Teflon homogenizer, and centrifuging for 20 minutes at 10,000 g to collect the supernatant as a brain homogenate. 500 μM cysteine, 5 μM ferrous sulfate, and 100 mM KCl were added to the resulting brain homogenate followed by incubating for 30 minutes at 37° C. and measuring the malondialdehyde that formed due to decomposition of lipid peroxide using the thiobarbituric acid method. The 50% inhibitory concentrations (hereinafter, abbreviated as IC50) of the compounds according to the present invention were then determined from the measured values.

[2] = tested on: lipid peroxide in homogenates of brain, heart and kidneys; experiment: Tissue migration: antioxidative action on lipids ex vivo in tissue homogenates after intraperitoneal administration; settings: Rattus norvegicus, ip, 0.5 h, male SD rats, 100 mg/kg intraperitoneally, 30 minutes after administration
Protocol: as §1
Tissue migration of the compounds according to the present invention was evaluated by measuring the antioxidative action on lipids ex vivo. A test compound dissolved or suspended in an aqueous physiological saline solution or aqueous physiological saline solution containing 1% polyethylene hardened castor oil (Nikko Chemicals: Nikkol HCO-60) was intraperitoneally administered to male SD rats (age: 6 weeks) (purchased from Japan SLC) in groups of 3 animals each at a dose of 100 mg/kg. The animals were sacrificed by exsanguination by severing the carotid artery 30 minutes after administration followed by removing the brain, heart and kidneys. The lipid peroxide activity of homogenates of each tissue was measured using the method described in Example 3. The inhibition rates of the test compounds in each tissue were determined from the amounts of lipid peroxide formed in a control group (physiological saline dose group) and test compound groups.

[3] = tested on: mice administered ferrous chloride into the spinal subarachnoid cavity; experiment: Antioxidative action in vivo: abnormal behavior and mortality after ferrous chloride into the spinal subarachnoid cavity; set-up: species or system mouse; settings: male ICR mice, 30 minutes before ferrous chloride, score after 60 minutes
Protocol: The antioxidative action in vivo of the compounds according to the present invention was evaluated according to the method described in the Journal of Medical Chemistry (J. Med. Chem., 1997, vol. 40, pp. 559 to 573) based on the inhibitory effects on abnormal behavior and mortality rate following administration of ferrous chloride into the spinal subarachnoid cavity of mice. Male S1c:ICR mice (age: 5 weeks) (purchased from Japan SLC) were used in groups of 3 to 7 animals each, and were administered 5 μl of aqueous physiological saline solution containing 50 mM ferrous chloride into the spinal column between the 5th and 6th lumbar vertebra. […] The test compounds were dissolved or suspended in an aqueous physiological saline solution or an aqueous physiological saline solution containing 1% polyethylene hardened castor oil (manufactured by Nikko Chemicals CO., LTD. under the name of NIKKOL HCO-60), and administered intraperitoneally or orally 30 minutes before the administration of ferrous chloride. The 50% inhibitory dose (hereinafter, abbreviated as ID50) of each test compound was determined from the score of a control group (physiological saline treated group) and the score of each test compound treated group.

[4] = tested on: lipid peroxides in retina homogenate; experiment: Retina migration: formation of lipid peroxides in retina ex vivo after oral administration; set-up: species or system rat; settings: male SD rats, retinas removed 30 minutes later, auto-oxidized 1 hour at 37° C.
Protocol: The retina migration of the compounds according to the present invention was evaluated. The test compounds dissolved or suspended in 0.1 N aqueous hydrochloric acid solution or 1% polyethylene hardened castor oil (Nikkol HCO-60) solution were orally administered to male SD rats (age: 6 weeks) in groups of three animals each followed by removing both eyes 30 minutes later and separating the retinas while cooling with ice. The retinas were homogenized with a Polytron Microhomogenizer (NS-310E: manufactured by Niti-On Medical and Physical Instruments) in 0.1 M Tris-HCl buffer (pH 7.4) while cooling with ice to prepare 5% homogenates. The homogenates were then auto-oxidized for 1 hour at 37° C., and the amounts of lipid peroxide that formed were quantified using the thiobarbituric acid method (Masugi, et al., Vitamin, 51, 21 to 29, 1977).

5-lipoxygenase (5-LO) = target: T1, 5-lipoxygenase (5-LO) (Homo sapiens, UniProt P09917); experiment: 5-LO inhibitory activity (leucotriene B4 formation in human peripheral blood mononuclear cells, A23187); assay type: cell-based; settings: 30 μM A23187, read-out: Lipoxygenase inhibitory action 50% inhibitory concentration (IC50 μm) 5-LO
T1 construct: human peripheral blood mononuclear cells; endogenous in cells; host or cells: human peripheral blood mononuclear cells
T1 sequence (P09917 1-674): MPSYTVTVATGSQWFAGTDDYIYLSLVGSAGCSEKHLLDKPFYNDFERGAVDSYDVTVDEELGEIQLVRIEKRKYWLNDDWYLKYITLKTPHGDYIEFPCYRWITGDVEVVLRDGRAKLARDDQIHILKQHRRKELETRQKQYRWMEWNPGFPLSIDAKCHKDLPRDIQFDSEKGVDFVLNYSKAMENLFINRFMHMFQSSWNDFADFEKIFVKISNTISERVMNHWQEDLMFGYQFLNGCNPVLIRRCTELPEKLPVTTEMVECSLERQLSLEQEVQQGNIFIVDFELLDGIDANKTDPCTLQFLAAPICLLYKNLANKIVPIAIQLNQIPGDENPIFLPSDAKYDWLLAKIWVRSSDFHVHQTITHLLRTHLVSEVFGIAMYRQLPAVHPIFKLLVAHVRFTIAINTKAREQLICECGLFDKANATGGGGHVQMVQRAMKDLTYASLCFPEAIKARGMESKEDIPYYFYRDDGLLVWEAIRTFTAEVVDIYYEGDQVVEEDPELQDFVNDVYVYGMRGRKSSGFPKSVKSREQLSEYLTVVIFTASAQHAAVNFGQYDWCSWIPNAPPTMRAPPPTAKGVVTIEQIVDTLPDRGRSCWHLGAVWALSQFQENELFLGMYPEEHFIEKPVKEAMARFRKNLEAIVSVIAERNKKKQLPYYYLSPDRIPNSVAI
Protocol: 5-LO inhibitory activity was measured using a variation of the method of Carter et al. (Carter G. W. et al., J. Pharmacol. Exp. Ther., 256, 929 to 937, 1991). Namely, after pre-incubating (37° C., 15 minutes) in Hank's solution human peripheral blood mononuclear cells and a test compound dissolved in DMSO (final concentration: 1%), 30 μM A23187 was added and the resulting solution was additionally incubated (37° C., 30 minutes). The resulting leucotriene B4 that formed was quantified by enzyme immunoassay, and the 50% formation inhibitory concentration (μM) of the test compound with respect to 5-LO was calculated from that value.

15-lipoxygenase (15-LO) = target: T2, 15-lipoxygenase (15-LO) (Oryctolagus cuniculus, UniProt P12530); experiment: 15-LO inhibitory activity (15-LO from rabbit reticulocytes, linoleic acid, 15-HETE formation); assay type: biochemical; settings: 256 μM linoleic acid, 4° C., read-out: Lipoxygenase inhibitory action 50% inhibitory concentration (IC50 μm) 15-LO
T2 construct: 15-LO obtained from rabbit reticulocytes; from tissue; host or cells: rabbit reticulocytes
T2 sequence (P12530 1-663): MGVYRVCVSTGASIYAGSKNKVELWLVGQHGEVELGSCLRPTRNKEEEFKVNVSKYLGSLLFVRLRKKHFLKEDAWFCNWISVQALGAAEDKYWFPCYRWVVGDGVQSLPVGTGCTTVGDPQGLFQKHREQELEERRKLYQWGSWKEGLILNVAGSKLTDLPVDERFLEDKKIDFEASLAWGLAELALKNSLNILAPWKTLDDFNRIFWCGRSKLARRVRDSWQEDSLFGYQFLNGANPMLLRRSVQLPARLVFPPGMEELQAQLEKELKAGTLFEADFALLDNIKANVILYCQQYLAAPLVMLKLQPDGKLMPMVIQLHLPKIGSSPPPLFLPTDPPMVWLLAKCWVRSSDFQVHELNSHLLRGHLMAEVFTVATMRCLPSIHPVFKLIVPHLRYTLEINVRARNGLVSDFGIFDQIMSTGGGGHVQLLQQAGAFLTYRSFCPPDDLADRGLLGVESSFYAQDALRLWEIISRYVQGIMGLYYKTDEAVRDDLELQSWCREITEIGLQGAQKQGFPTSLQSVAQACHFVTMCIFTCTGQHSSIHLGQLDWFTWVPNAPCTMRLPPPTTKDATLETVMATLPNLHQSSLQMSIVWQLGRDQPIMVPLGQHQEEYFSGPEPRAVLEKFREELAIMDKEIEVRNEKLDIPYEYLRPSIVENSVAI
Protocol: 15-LO inhibitory activity was measured using a variation of the method of Auerbach et al. (Auerbach B. J. et al., Anal. Biochem., 201, 375 to 380, 1992). Namely, after pre-incubating (4° C., 15 minutes) in phosphate buffer (pH 7.4) 15-LO obtained from rabbit reticulocytes and a test compound dissolved in DMSO (final concentration: 1%), 256 μM linoleic acid was added and the resulting solution was additionally incubated (4° C., 10 minutes). The resulting 15-HETE that formed was quantified by spectrophotometry (OD660 nm), and the 50% formation inhibitory concentration (μM) of the test compound with respect to 15-LO was calculated from that value.

[5] = brain, read-out: Inhibition rate of ex vivo anti-lipid peroxide action (%) Brain
[6] = heart, read-out: Inhibition rate of ex vivo anti-lipid peroxide action (%) Heart
[7] = kidney, read-out: Inhibition rate of ex vivo anti-lipid peroxide action (%) Kidney

Structure (SMILES) | IC50 [1] | inhibition at 100 mg/kg [2, 5] | inhibition at 100 mg/kg [2, 6] | inhibition at 100 mg/kg [2, 7] | Antioxidative action in vivo 50% inhibitory dose (ID50 mg/kg) Intraperitoneal administration [3] | Antioxidative action in vivo 50% inhibitory dose (ID50 mg/kg) Oral administration [3] | Inhibitory effect on formation of lipid peroxides in retina ex vivo 30% inhibitory concentration (ID30 mg/kg, oral administration) [4] | IC50 (5-lipoxygenase (5-LO)) | IC50 (15-lipoxygenase (15-LO))
Cc1c(C)c2c(c(C)c1O)CC(C)(OC=Nc1ccc(-n3ccnc3)cc1)O2 (stereo not drawn) [Control drug 1, reference compound] | 230 nM | 68% | 59% | 75% | >30 mg/kg | >30 mg/kg | – | – | –
Cc1c(C)c2c(c(C)c1O)CCC(C)(OC=Nc1ccc(-n3ccnc3)cc1)O2 (stereo not drawn) [Control drug 2, reference compound] | 230 nM | 45% | 57% | 84% | 20 mg/kg | 53 mg/kg | – | – | –
Cc1c(C)c2c(c(C)c1N)CC(C)(C(=O)Nc1ccc(-n3ccnc3)cc1)O2 (racemic) [Compound 1, (±)-(5-amino-2,4,6,7-tetramethyldihydrobenzofuran-2-yl)-N-[4-(imidazol-1-yl)phenyl]carboxamide] | – | 83% | 80% | 87% | 6.8 mg/kg | 9.7 mg/kg | 16 mg/kg | – | –
Cc1c(C)c2c(c(C)c1N)CC(C)(C(=O)Nc1ccc(-c3ccn[nH]3)cc1)O2 (stereo not drawn) [Compound 37] | 800 nM | 95% | 87% | 89% | 12 mg/kg | 27 mg/kg | 5.2 mg/kg | 230 nM | 2060 nM
